Structures can show the parent of a compound that is named as a salt.
Molecular target: hResistin (Homo sapiens (Human), UniProt Q9HD89)
Assay: Evaluation of the ability to inhibit TNF-α secretion by hResistin (THP-1 cells, ELISA)
Type: cell-based
Details: for inhibition at 5 µM: inhibition of TNF-α secretion by hResistin in THP-1 cells; for IC50: THP-1 human monocyte cell line, human recombinant Resistin
Experimental: Experimental Example: Evaluation of the Ability to Inhibit TNF-α Secretion by hResistin
Using THP-1 (human monocyte) cell line and ELISA system, the abilities to inhibit TNF-α secretion by hResistin (IC50) were evaluated for the compounds prepared in the above examples. The compounds target hResistin, and the abilities of the compounds to inhibit TNF-α secretion by human recombinant Resistin in human monocyte (THP-1) were evaluated. The abilities to inhibit TNF-α secretion were assessed by ELISA quantifying the amount of antibody with the enzyme as a marker using an antigen-antibody reaction.
Specifically, the cultured cells were spun down at 1,500 rpm for 2 minutes, the supernatant was removed and then the cells were re-suspended in 10 mL of complete RPMI-1640 medium. After counting the number of cells using Luna™ Automated Cell Counter, cells were plated into 96-well assay plates at 50 μL per well. The cells cultured for 24 hours were treated with the test substances in accordance with the concentration for 1 hour, and then the supernatant was collected and subjected to ELISA assay. In the ELISA assay, the absorbance at 450 nm (OD450 nm) was measured using Flexstation 3. The ability of each test substance to inhibit TNF-α secretion (IC50) and its inhibition at a concentration of 5 uM are shown in Table 1 below.

Chain of hResistin (Q9HD89 19-108): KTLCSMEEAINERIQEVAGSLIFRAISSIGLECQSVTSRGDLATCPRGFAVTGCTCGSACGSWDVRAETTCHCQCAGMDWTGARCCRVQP

inhibition at 5 µM [%]	IC50 [nM]	SMILES
12.6	–	NC(=O)CCC(N)C(=O)N1CCN(c2nnc(-c3ccc(Cl)cc3)c3ccccc23)CC1 (centres unmarked) [Example 84, 4-amino-5-(4-(4-(4-chlorophenyl)phthalazin-1-yl)piperazin-1-yl)-5-oxopentanamide hydrochloride]
0.6	–	CC(C)(N)C(=O)N1CCN(c2nnc(-c3ccc(CCC(=O)O)cc3)c3ccccc23)CC1 [Example 104, 3-(4-(4-(4-(2-amino-2-methylpropanoyl)piperazin-1-yl)phthalazin-1-yl)phenyl)propanoic acid hydrochloride]
60.3	–	O=C([C@@H]1CCCN1)N1CCN(c2nnc(-c3ccc(Cl)cc3)c3ccccc23)CC1 [Example 59, (S)-(4-(4-(4-chlorophenyl)phthalazin-1-yl)piperazin-1-yl)(pyrrolidin-2-yl)methanone hydrochloride]
64	2300	Clc1ccc(-c2nnc(O[C@H]3CCNC3)c3ccccc23)cc1 [Example 95, (S)-1-(4-chlorophenyl)-4-(pyrrolidin-3-yloxy)phthalazine hydrochloride]
26.9	–	CNC1CCN(c2nnc(Nc3ccc(Cl)cc3)c3ccccc23)C1 (centres unmarked) [Example 97, N-(4-chlorophenyl)-4-(3-(methylamino)pyrrolidin-1-yl)phthalazin-1-amine]
45.3	5400	NC(=O)CC(N)C(=O)N1CCN(c2nnc(-c3ccc(Cl)cc3)c3ccccc23)CC1 (centres unmarked) [Example 85, 3-amino-4-(4-(4-(4-chlorophenyl)phthalazin-1-yl)piperazin-1-yl)-4-oxobutanamide hydrochloride]
77.6	1600	CC(=O)NC1CCN(c2nnc(-c3ccc(Cl)cc3)c3ccccc23)C1 (centres unmarked) [Example 45, N-(1-(4-(4-chlorophenyl)phthalazin-1-yl)pyrrolidin-3-yl)acetamide]
30.9	–	CC(C)[C@H](N)C(=O)N1CCN(c2nnc(-c3ccc(Cl)cc3)c3ccccc23)[C@@H](C)C1 [Example 75, (S)-2-amino-1-((S)-4-(4-(4-chlorophenyl)phthalazin-1-yl)-3-methylpiperazin-1-yl)-3-methylbutan-1-one hydrochloride]
54	–	Clc1ccc(-c2nnc(N3CCN(CC4CC4)CC3)c3ccccc23)cc1 [Example 50, 1-(4-chlorophenyl)-4-(4-(cyclopropylmethyl)piperazin-1-yl)phthalazine]
29.9	–	CC(C)(N)C(=O)N1CCN(c2nnc(Oc3ccc(Cl)cc3)c3ccccc23)CC1 [Example 94, 2-amino-1-(4-(4-(4-chlorophenoxy)phthalazin-1-yl)piperazin-1-yl)-2-methylpropan-1-one hydrochloride]
–	1200	O=C(C1CC1)N1CCN(c2nnc(-c3ccc(Cl)cc3)c3ccccc23)CC1 [Example 10, (4-(4-(4-chlorophenyl)phthalazin-1-yl)piperazin-1-yl)(cyclopropyl)methanone]
24.8	–	O=C([C@@H]1CCCN1)N1CCC(c2nnc(-c3ccc(Cl)cc3)c3ccccc23)CC1 [Example 62, (S)-(4-(4-(4-chlorophenyl)phthalazin-1-yl)piperidin-1-yl)(pyrrolidin-2-yl)methanone hydrochloride]
65.4	–	N[C@@H](COCc1ccccc1)C(=O)N1CCN(c2nnc(-c3ccc(Cl)cc3)c3ccccc23)CC1 [Example 79, (S)-2-amino-3-(benzyloxy)-1-(4-(4-(4-chlorophenyl)phthalazin-1-yl)piperazin-1-yl)propan-1-one hydrochloride]
–	3700	COCCN1CCN(c2nnc(-c3ccc(Cl)cc3)c3ccccc23)CC1 [Example 9, 1-(4-chlorophenyl)-4-(4-(2-methoxyethyl)piperazin-1-yl)phthalazine]
42.2	–	CC(C)[C@H](N)C(=O)N1CCN(c2nnc(-c3ccc(Cl)cc3)c3ccccc23)C[C@H]1C [Example 71, (S)-2-amino-1-((R)-4-(4-(4-chlorophenyl)phthalazin-1-yl)-2-methylpiperazin-1-yl)-3-methylbutan-1-one hydrochloride]
70	1900	CCNC1CCN(c2nnc(-c3ccc(Cl)cc3)c3ccccc23)C1 (centres unmarked) [Example 54, 1-(4-(4-chlorophenyl)phthalazin-1-yl)-N-ethylpyrrolidin-3-amine hydrochloride]
52.9	–	O=S(=O)(C1CC1)N1CCN(c2nnc(-c3ccc(Cl)cc3)c3ccccc23)CC1 [Example 37, 1-(4-chlorophenyl)-4-(4-(cyclopropylsulfonyl)piperazin-1-yl)phthalazine]
38.9	–	Clc1ccc(-c2nnc(N3CCCN(Cc4ccccc4)CC3)c3ccccc23)cc1 [Example 67, 1-(4-benzyl-1,4-diazepan-1-yl)-4-(4-chlorophenyl)phthalazine]
84.4	1300	CC(C)(N)C(=O)N1CCN(c2nnc(-c3ccc(Cl)cc3)c3ccccc23)CC1 [Example 43, 2-amino-1-(4-(4-(4-chlorophenyl)phthalazin-1-yl)piperazin-1-yl)-2-methyl propan-1-one hydrochloride]
16.1	–	CC(C)[C@H](N)C(=O)N1CCN(c2nnc(-c3ccc(Cl)cc3)c3ccccc23)CC1(C)C [Example 69, (S)-2-amino-1-(4-(4-(4-chlorophenyl)phthalazin-1-yl)-2,2-dimethylpiperazin-1-yl)-3-methylbutan-1-one hydrochloride]
58.9	–	Clc1ccc(-c2nnc(OC3CCCNC3)c3ccccc23)cc1 (centres unmarked) [Example 96, 1-(4-chlorophenyl)-4-(piperidin-3-yloxy)phthalazine hydrochloride]
2.4	–	CCOC(=O)CN1CCN(c2nnc(-c3ccc(Cl)cc3)c3ccccc23)CC1 [Example 65, ethyl 2-(4-(4-(4-chlorophenyl)phthalazin-1-yl)piperazin-1-yl)acetate]
86.7	900	CNC1CCN(c2nnc(-c3ccc(Cl)cc3)c3cc(Cl)ccc23)C1 (centres unmarked) [Example 90, 1-(6-chloro-4-(4-chlorophenyl)phthalazin-1-yl)-N-methylpyrrolidin-3-amine hydrochloride]
69.9	–	N[C@H](C(=O)N1CCN(c2nnc(-c3ccc(Cl)cc3)c3ccccc23)CC1)c1ccccc1 [Example 80, (S)-2-amino-1-(4-(4-(4-chlorophenyl)phthalazin-1-yl)piperazin-1-yl)-2-phenylethanone hydrochloride]
77.3	2900	NC1(C(=O)N2CCN(c3nnc(-c4ccc(Cl)cc4)c4ccccc34)CC2)CCCC1 [Example 58, (1-aminocyclopentyl)(4-(4-(4-chlorophenyl)phthalazin-1-yl)piperazin-1-yl)methanone hydrochloride]
61.4	–	C[C@@H]1CN(c2nnc(-c3ccc(Cl)cc3)c3ccccc23)CCN1C(=O)C(C)(C)N [Example 70, (R)-2-amino-1-(4-(4-(4-chlorophenyl)phthalazin-1-yl)-2-methylpiperazin-1-yl)-2-methylpropan-1-one hydrochloride]
53.6	–	CC(C)[C@H](N)C(=O)N1CCN(c2nnc(-c3ccc(Cl)cc3)c3ccccc23)C[C@@H]1C [Example 73, (S)-2-amino-1-((S)-4-(4-(4-chlorophenyl)phthalazin-1-yl)-2-methylpiperazin-1-yl)-3-methylbutan-1-one hydrochloride]
8.7	–	CNCCN(C)c1nnc(-c2ccc(Cl)cc2)c2ccccc12 [Example 53, N1-(4-(4-chlorophenyl)phthalazin-1-yl)-N1,N2-dimethylethane-1,2-diamine]

Reference: patent US10947241B2, “Phenyl phthalazine derivative, method for the preparation thereof, and pharmaceutical composition comprising the same” (Seoul National University Hospital, priority 2016, dated 2021)
